These are literature values, as cited in patent US11682473B2, “Skin permeability prediction” (priority 2016, dated 2023).

Where two headings read alike, the source gives them in different places.

For the data set the following is noted: for log KP, Experimental: Experimental row of Table 16 (in vitro diffusion cells); for log KPexp: uncorrected literature value (permeabilities in cm/h); for log Kp303K: experimental literature values (in vitro diffusion cells), averaged over sources, temperature-corrected to 303 K.

Consider `CN1CCCC1c1cccnc1` (stereo not shown) [Nicotine, nicotine], for which the “log KP, Experimental” value is listed as −1.8 cm/h and the “log Kp303K” value was −1.8 cm/h. Further, the “log KPexp” value (Texp 25 °C) was −1.71. For the same molecule, the “log KPexp” value (Texp 37 °C) is on record as −2.48.
For the molecule `COc1ccc2c3c1O[C@H]1[C@@H](O)C=C[C@H]4[C@@H](C2)N(C)CC[C@@]341` [Codeine, codeine], the “log KP, Experimental” value was −4.6 cm/h and the “log Kp303K” value is listed as −4.6 cm/h. In addition, the “log KPexp” value (Texp 37 °C) is reported as −4.6.
As for `c1ccccc1` [Benzene, benzene], the “log Kp303K” value is −0.8 cm/h. Also, the “log KPexp” value (Texp 25 °C) was −0.80. The “log KPexp” value (Texp 31 °C) is −0.95.
